According to US5773019A, “Implantable controlled release device to deliver drugs directly to an internal portion of the body” (The University of Kentucky Research Foundation, priority 1995, dated 1998):
Values after ≈ are worked out from the molar mass of the structure shown.

What was measured:
[1] = In vitro release of ciprofloxacin from device (HPLC); type: physicochemical
Protocol: Ciprofloxacin is normally supplied as the HCl salt. […] A 5% solution of PLA was used as a "glue" to fix a 7-0 nylon suture to the pellet.
Release from these devices was determined at 37° C. by immersion in 1 ml of phosphate buffer (pH 7.4) or a solution composed of 20% serum: 80% phosphate buffer. […] Samples were again assayed by HPLC.

[2] = system: eye; experiment: Ocular safety of ciprofloxacin device (ERG, slit lamp, indirect biomicroscopy)
[3] = system: most pathogens; settings: cited from earlier work
[4] = system: eye; experiment: ERG toxicity of retinoic acid implant sutured onto sclera; type: in vivo; settings: 12 mg disc in silicone on sclera, 3 rabbits, ERG weekly for 5 weeks
Protocol: A device according to the present invention was prepared. This device was composed of a 3 mm, 12 mg disc of retinoic acid encased in silicone. It resembles FIG. 3 in appearance. The implant was prepared by preparing a thin film of silicone. A 2.5 mm hole was then cut through the film and the retinoic acid pellet fixed directly over the hole using silicone. A loop of Prolene suture was placed over the pellet and fixed onto the surface of the film so that a "gap" of over 1 mm was present between the pellet and the suture all the way around. The entire assembly was then coated again in silicone. These pellets were sutured onto the surface of the sclera in 3 rabbits and the ERGs taken every week for 5 weeks.

## O=C(O)c1cn(C2CC2)c2cc(N3CCNCC3)c(F)cc2c1=O [ciprofloxacin]
[1]; 37° C., 6 days, phosphate buffer pH 7.4 or 20% serum
  linearity of release: linear over the duration of the study
[1]; phosphate buffer pH 7.4 vs 20% serum
  effect of serum concentration on release: relatively independent of serum concentration
[1]; separate study, twenty day period
  linearity of release: linear over a twenty day period
[2]; 7 and 14 days
  slit lamp examination: mild vitreous cell at 7 days that had resolved by 14 days
[2]; implanted eyes
  indirect biomicroscopy: devices to be stable with no migration and no retinal detachment
[2]; pre- vs post-implantation
  ERG waveforms or amplitudes: no significant difference in the pre- and post-implantation waveforms or amplitudes
5 mg subconjunctival suspension injection
  persistence of drug particles in subconjunctival space: 7 days
Explanted devices
  linearity of release in the vitreous: linear while in the vitreous
  mean release rate in the vitreous: 2.5 µg/h
From mean release rate
  mean device duration: 4 weeks
[3]
  MIC90: 1 µg/mL (≈ 3.02 µM)

## CC1=C(/C=C/C(C)=C/C=C/C(C)=C/C(=O)O)C(C)(C)CCC1 [retinoic acid]
[4]
  toxicity (ERG): no evidence of toxicity
